Test results from patent US20240132522A1, “HETEROCYCLIC COMPOUNDS AND METHODS OF USE THEREOF” (1cBio, Inc., priority 2022, published 2024).
pIC50: −log10 of the molar value. Where a name gives a salt, the structure may show the parent alone.

Tests used:
[1] = system: DLD-1 BRCA2(−/−) colorectal adenocarcinoma cells; assay: Cell viability assay (Cell Titer-Glo), DLD-1 BRCA2(−/−); format: cell-based; conditions: Homo sapiens, DLD-1, 168 h, 7 days, 200 cells/well
Source text: (§1) In some embodiments, the biological assay measures the effects that compounds of the present disclosure may have on the viability of cells, e.g., the viability of cancer cells. In some embodiments, DLD-1 wild-type and DLD-1 BRCA2(−/−) colorectal adenocarcinoma cells, an isogenic pair of cell lines differing in the presence and absence, respectively, of both BRCA2 alleles, are used to measure the effect of the disclosed compounds on the viability of cancer cells.
(§2) In some embodiments, the cells are harvested during the logarithmic growth period, counted, and seeded at a specified count in the wells of a 96- or 384-well cell culture plate. In some embodiments, after seeding, the cells are incubated, e.g., at 37° C., 5% CO2 overnight. In some embodiments, the cells are treated with compounds, e.g., with serially diluted test compounds at 8-11 concentrations within a desired concentration range, e.g., from 1 nM-10 μM, for the generation of dose-response curves. In some embodiments, the plate is further incubated, e.g., for another 3-7 days in a humidified incubator at 37° C. and 5% CO2. In some embodiments, cell viability is assessed by luminescence measurement after addition of Cell Titer-Glo reagent (Promega, Madison, Wis.) according to the manufacturer's instructions. In some embodiments, cell viability IC50 values are calculated using XLFit, equation 201: y=A+((B−A)/(1+((x/C)^D))), where A=bottom, B=top, C=IC50, and D=slope. In some embodiments, the effects of the test compounds on the viability of other cell lines such as MDA-MB-436, MDA-MB-231, SUM149PT, HCC1395, and UWB1.289 are determined in an analogous method.
(§3) Compounds of the present disclosure were tested for their effects on the viability of cancer cells. DLD-1 wild-type and DLD-1 BRCA2(−/−) colorectal adenocarcinoma cells, an isogenic pair of cell lines differing in the presence and absence, respectively, of both BRCA2 alleles, were used. The cells were harvested during the logarithmic growth period, counted, and seeded at 50 cells/well for DLD-1 wild-type and 200 cells/well for DLD-1 BRCA2(−/−) in a 384-well cell culture plate. After seeding, cells were incubated at 37° C., 5% CO2 overnight. Cells were treated with serially diluted test compounds at 10 concentrations from 1.5 nM-30 μM) for generation of dose response curves. The plate was further incubated for another 7 days in a humidified incubator at 37° C. and 5% CO2. Cell viability was assessed by luminescence measurement after addition of Cell Titer-Glo reagent (Promega, Madison, Wis.) according to the manufacturer's instructions. Cell viability IC50 values were calculated using XLFit, equation 201: y=A+((B−A)/(1+((x/C)^D))), where A=bottom, B=top, C=IC50, and D=slope. IC50 values are shown in Table B and are presented in ranges, in which “+++”<300 nM, 300 nM≤“++”<3000 nM, and “+”≥3000 nM. Effects of the test compounds on the viability of other cell lines such as MDA-MB-436, MDA-MB-231, SUM149PT, HCC1395, and UWB1.289 are determined in an analogous method.

recombinant human PARP1 = recombinant human PARP1 (Homo sapiens, UniProt P09874); assay: PARP1 fluorescence polarization binding assay; conditions: binding IC50, GST-tagged PARP1 20 nM, PARPi-FL probe 3 nM, 4 h at RT
Description: In some embodiments, the biological assay is described in the Examples herein. In some embodiments, the biological assay measures PARP-1 binding by way of fluorescence polarization measurements. In some embodiments, binding of a test compound to recombinant human PARP-1 reduces the amount of binding of a fluorescent probe, and consequently reduces the detected level of fluorescence polarization. In some test compound stock solutions are prepared in a solvent, e.g., DMSO, and are serially diluted into a range of concentrations, e.g., 15 concentrations, 14 concentrations, 13 concentrations, 12 concentrations, 11 concentrations, 10 concentrations, 9 concentrations, 8 concentrations, 7 concentrations, 6 concentrations, or 5 concentrations, by a dilution factor, e.g., a 10-fold dilution factor, a 9-fold dilution factor, an 8-fold dilution factor, a 7-fold dilution factor, a 6-fold dilution factor, a 5-fold dilution factor, a 4-fold dilution factor, a 3-fold dilution factor, or a 2-fold dilution factor. In some embodiments, the serial dilutions, e.g., 100 nL of serial dilution, 90 nL of serial dilution, 80 nL of serial dilution, 70 nL of serial dilution, 60 nL of serial dilution, 50 nL of serial dilution, 30 nL of serial dilution, 20 nL of serial dilution, or 10 nL of serial dilution, are added to a multi-welled plate, e.g., a 1536-well plate, a 384-well plate, or a 96-well plate. In some embodiments, PARP-1, e.g., GST-tagged PARP-1, is diluted in assay buffer, e.g., 50 μL of assay buffer, 40 μL of assay buffer, e.g., 30 μL of assay buffer, 20 μL of assay buffer, 10 μL of assay buffer, or 5 μL of assay buffer, and is added to the plate. In some embodiments, the plate is centrifuged, e.g., at 1000 rpm for 1 min, and incubated, e.g., incubated for 30 minutes at room temperature (RT). In some embodiments, a fluorescent probe, e.g., 10 μL of 6 nM PARPi-FL (TOCRIS, Cat #6461), is diluted in an assay buffer and is added to the plate. In some embodiments, the final concentrations of PARP-1 and fluorescent probe are 20 nM and 3 nM, respectively, in a total volume of 20 μL. In some embodiments, the plate is centrifuged, e.g., at 1000 rpm for 1 minute, and the assay plate is incubated, e.g., for 4 h at RT. In some embodiments, the samples in each well are read using a plate reader, e.g., an Envision instrument using excitation=480 nm, and emission wavelength=FITC FP-P pol 535 nm & FITC FP-S pol 535 nm). In some embodiments, percent inhibition is calculated from mP values using Inhibition (%)=[1−(mPc−mPL)/(mPH−mPL)]×100%, where mPc, mPL, and mPH are the mP values of test compound, Low controls, and High controls, respectively. In some embodiments, binding IC50 values are calculated using XLFit (equation 201: y=A+((B−A)/(1+((x/C)^D))), where A=bottom, B=top, C=IC50, and D=slope) with a floating top and bottom for curves.
Compounds of the present disclosure were tested in a PARP1 fluorescence polarization binding assay at Pharmaron (Beijing, P.R. China). In this biochemical assay, binding of test compound to recombinant human PARP1 reduces the amount of binding of a fluorescent probe, and consequently reduces the detected level of fluorescence polarization. Test compound stock solutions were prepared in DMSO and then serially diluted into 10 concentrations by 3-fold dilution in a 384-well plate using a TECAN EVO200. 60 nL of each dilution was transferred to the plate using an Echo550 (Labcyte), and then 10 μL 40 nM GST-tagged PARP1 (BPS Bioscience, Cat #80501), diluted in assay buffer (50 mM Tris pH 8.0, 0.001% Triton X-100, 10 mM MgCl2, 150 mM NaCl), was added to the plate. After a centrifugation at 1000 rpm for 1 min, the assay plate was incubated for 30 min at RT. 10 μL 6 nM PARPi-FL (TOCRIS, Cat #6461), diluted using assay buffer, was then added to the plate. The final concentrations of PARP1 and PARPi-FL were 20 nM and 3 nM, respectively, in a total volume of 20 μL. […]

[2] = system: DLD-1 wild-type colorectal adenocarcinoma cells; assay: Cell viability assay (Cell Titer-Glo), DLD-1 wild-type; format: cell-based; conditions: Homo sapiens, DLD-1, 168 h, 7 days, 50 cells/well
Source text: as §1, §2, §3

Chain of recombinant human PARP1 (P09874 whole entry): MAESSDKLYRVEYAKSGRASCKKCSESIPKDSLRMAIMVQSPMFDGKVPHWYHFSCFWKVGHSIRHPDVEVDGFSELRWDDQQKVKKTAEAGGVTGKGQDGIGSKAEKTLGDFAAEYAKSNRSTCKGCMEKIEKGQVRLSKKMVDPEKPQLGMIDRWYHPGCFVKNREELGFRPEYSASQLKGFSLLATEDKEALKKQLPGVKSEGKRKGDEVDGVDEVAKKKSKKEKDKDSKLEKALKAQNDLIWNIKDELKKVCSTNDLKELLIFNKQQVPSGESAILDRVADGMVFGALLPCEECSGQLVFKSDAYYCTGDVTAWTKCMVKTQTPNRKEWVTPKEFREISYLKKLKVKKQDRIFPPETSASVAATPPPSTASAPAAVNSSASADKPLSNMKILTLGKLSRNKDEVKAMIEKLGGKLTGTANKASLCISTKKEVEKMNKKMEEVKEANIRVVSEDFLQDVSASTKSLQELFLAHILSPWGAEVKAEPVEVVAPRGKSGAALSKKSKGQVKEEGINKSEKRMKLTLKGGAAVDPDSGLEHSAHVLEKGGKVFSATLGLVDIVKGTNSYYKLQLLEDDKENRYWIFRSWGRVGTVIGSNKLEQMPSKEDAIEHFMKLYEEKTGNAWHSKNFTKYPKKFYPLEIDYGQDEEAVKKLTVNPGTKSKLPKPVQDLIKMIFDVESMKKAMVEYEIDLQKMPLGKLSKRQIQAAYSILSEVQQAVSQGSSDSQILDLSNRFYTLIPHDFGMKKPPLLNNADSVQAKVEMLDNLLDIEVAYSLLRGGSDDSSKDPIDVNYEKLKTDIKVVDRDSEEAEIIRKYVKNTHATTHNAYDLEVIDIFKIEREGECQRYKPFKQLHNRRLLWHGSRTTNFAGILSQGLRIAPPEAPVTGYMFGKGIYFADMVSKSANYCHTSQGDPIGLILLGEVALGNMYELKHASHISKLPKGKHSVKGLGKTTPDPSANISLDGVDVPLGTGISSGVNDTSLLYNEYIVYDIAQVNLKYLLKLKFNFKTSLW

Structure (SMILES) | pIC50 [1] | pIC50 (recombinant human PARP1) | pIC50 [2]
CCc1cc2ncc(CN3CC4(C3)CN(c3ccc(C(=O)NC)nc3C)C4)cc2[nH]c1=O [Compound No. 139, 5-(6-((7-ethyl-6-oxo-5,6-dihydro-1,5-naphthyridin-3-yl)methyl)-2,6-diazaspiro[3.3]heptan-2-yl)-N,6-dimethylpicolinamide formate] | ≤ 5.52 | 5.52 to 7.00 | ≤ 5.52
CCc1cc2ncc(CN3CC4(C3)CN(C(=O)c3ccc(F)cc3F)C4)cc2[nH]c1=O [Compound No. 181, 7-({6-[(2,4-difluorophenyl)carbonyl]-2,6-diazaspiro[3.3]heptan-2-yl}methyl)-3-ethyl-1H-1,5-naphthyridin-2-one formate] | ≤ 5.52 | ≤ 5.52 | ≤ 5.52
CCc1cc2ncc(CN3CC4CCC(C3)N4c3ccc(C(=O)NC)nc3)cc2[nH]c1=O [Compound No. 8, 5-(3-((7-ethyl-6-oxo-5,6-dihydro-1,5-naphthyridin-3-yl)methyl)-3,8-diazabicyclo[3.2.1]octan-8-yl)-N-methylpicolinamide] | ≤ 5.52 | 5.52 to 7.00 | ≤ 5.52
CCc1cc2ncc(CN3C4CCC3CN(c3ccc(C(=O)NC)nc3)C4)cc2[nH]c1=O [Compound No. 3, 5-(8-((7-ethyl-6-oxo-5,6-dihydro-1,5-naphthyridin-3-yl)methyl)-3,8-diazabicyclo[3.2.1]octan-3-yl)-N-methylpicolinamide] | 5.52 to 6.52 | > 7.00 | ≤ 5.52
